Conditions: rat, in vivo, 50 mg/kg
Description: An intracolonic dosing composition containing 50 mg/kg of carrier 9 and 250 μg/kg of interferon in 50% propylene glycol was prepared. Rats were administered the dosing composition by intracolonic instillation.
Rats were administered, orally and by intracolonic instillation, dosing solutions of 1 mg/kg of interferon and no carrier.

Mean peak serum interferon concentration: 2611±695
SMILES: O=C(O)CCCc1ccc(NC(=O)COc2ccccc2)cc1 [Compound 9]
